From patent US20220089602A1, “COMPOUNDS THAT INDUCE FERROPTIC CELL DEATH” (The Board of Trustees of the University of Illinois, priority 2019, published 2022)
Entries after “also recorded” stand apart in the source; their conditions may differ.

How the values were obtained:
ES-2 cells [1] = assay: Protection studies against ferroptocide-induced cell death, AV/PI; assay type: cell-based; conditions: pre-treatment with protecting agent
Procedure: (§1) ES-2, HCT 116, Mia PaCa-2, A549, and 4T1 cells (1×10^5 cells/mL) were plated overnight in 12 well plates, prior to addition of compounds. For protection studies, samples were pre-treated with each protecting agent such as 25 μM Q-VD-OPh, 250 μM trolox, 2 μM ferrostatin-1, 5 mM NAC-1 (neutralized pH), or 100 μM deferoxamine (DFO) for two hours or 1 hr (NAC-1) before compound addition. Cells were incubated for the appropriate times and harvested for flow cytometry analysis. Cell pellets were resuspended in binding buffer (10 mM HEPES, pH 7.4, 140 mM NaCl, 2.5 mM CaCl2) containing 2 μg/mL propidium iodide and 5 μL/mL Annexin V-FITC conjugate antibody and analyzed for cell viability after gating for forward and side scattering. Ten thousand events were collected per sample in BD LSR II Flow Cytometer (BD Bioscience) and FCS express V6, De Novo software was used to perform experimental analysis.

A549 cells = assay: as above; assay type: cell-based; conditions: pre-treatment with protecting agent
Procedure: as §1

4T1 cells = assay: as above; assay type: cell-based, murine; conditions: pre-treatment with protecting agent
Procedure: as §1

HCT 116 cells = assay: as above; assay type: cell-based; conditions: pre-treatment with protecting agent
Procedure: Cells were incubated for the appropriate times and harvested for flow cytometry analysis. Cell pellets were resuspended in binding buffer (10 mM HEPES, pH 7.4, 140 mM NaCl, 2.5 mM CaCl2) containing 2 μg/mL propidium iodide and 5 μL/mL Annexin V-FITC conjugate antibody and analyzed for cell viability after gating for forward and side scattering. Ten thousand events were collected per sample in BD LSR II Flow Cytometer (BD Bioscience) and FCS express V6, De Novo software was used to perform experimental analysis.

ES-2 cell line = assay: 72 hr cell viability assay (Alamar Blue), dose response IC50; assay type: cell-based; conditions: for anticancer activity (in words): 72 hr cell viability assay, ES-2 cells, relative to ferroptocide; for IC50: Homo sapiens, 72 hr, ES-2 cell line, Alamar Blue fluorescence, mean ± s.e.m., n ≥ 3
Procedure: 40 μL of media was added to each well of a 384-well tissue culture-treated plate. 3×100 nL of compound in DMSO was then pin-transferred from compound storage plates (2 mM stocks) into media-containing wells using the Platemate Plus at the UIUC High Throughput Screening Facility. A 100,000 cells/mL suspension of ES-2 cells was prepared, and 10 μL was added to each well for a final concentration of 1000 cells/well. Doxorubicin (100 μM final) was used as a positive control. Plates were sealed with gas-permeable seals and incubated at 37° C. for 72 h. After incubation, 5 μL of Alamar blue (440 μM resazurin in sterile PBS) was added and allowed to incubate for 3-4 h, until visible color change occurred. Fluorescence was measured in a Molecular Devices SpectraMax 3 (excitation=555 nm, emission=585 nm, emission cutoff=570 nm).
To a 384-well plate, 40 μL of 1.25× compound dilution or 1.25% DMSO-containing media was added (final volume of 1% DMSO). Concentrations of compounds tested were 100 μM to 100 nM. On each plate at least 3 technical replicates per compound were performed. Next, 10 μL of a 100,000 cells/mL suspension was added to each well, yielding a final concentration of 1,000 cells/well. To three wells in column 2 was added 1 μL of 10 mM doxorubicin (final concentration of 200 μM) as positive control of cell death. Plates were sealed with gas-permeable seals and incubated at 37° C. for 72 h. At that time, 5 μL of Alamar blue (440 μM resazurin in sterile PBS) was added and plates were incubated for 3-4 hours. Fluorescence was read on a Molecular Devices SpectraMax 3 (excitation=555 nm, emission=585 nm, emission cutoff=570 nm). Wells were normalized to the average of untreated wells (0% cell death). The data were plotted as compound concentration versus percent dead cells and fitted to a logistic-dose response curve using OriginPro 2015 (OriginLab, Northampton, Mass.). The data were generated in triplicate, and IC50 values are reported as the average of three separate experiments along with standard error of the mean.

red blood cells = assay: Hemolysis assay; assay type: cell-based, human; conditions: 2 hr treatment with 333 μM
Procedure: Whole human blood in citrate phosphate dextrose was obtained from Bioreclamation LLC, stored at 4° C. and used before expiration date. 100 μL of whole blood was combined with 500 μL saline (0.9% NaCl) and centrifuged for 5 min at 300×g. The supernatant was carefully removed from the erythrocyte pellet and the liquid was discarded. Washed pellet 3× in 500 μL saline. The erythrocyte pellet was resuspended in 800 μL of Red Blood Cell Buffer (10 mM Na2HPO4, 150 mM NaCl, 1 mM MgCl2, pH 7.4). To a 0.5 mL eppendorf tube or a PCR plate was added 1.0 μL of 30× compound in DMSO and 19 μL RBC Buffer. For negative controls, 1.0 μL DMSO was combined with 19 μL RBC buffer. For positive controls, either 20 μL MilliQ H2O or 1.0 μL 30% Triton X-100 were combined with 19 μL RBC Buffer. Tubes or plates were briefly centrifuged. Next, 10 μL of washed erythrocyte suspension was added to each tube, then sealed. After incubation at 37° C. for 2 h, samples were centrifuged for 5 min at 300×g, and 20 μL of supernatant was carefully removed and transferred to wells of a clear flat-bottomed 384-well plate. Absorbance was measured at 540 nm. The data were plotted as compound concentration versus percent hemolysis, and fitted to OriginPro (OriginLab, Northampton, Mass.).

ES-2 cells [2] = assay: Confocal microscopy competition with fluorescent analogue P30; assay type: cell-based; conditions: pretreatment at 3× IC50 for 30 min, then P30 (5 μM)
Procedure: ES-2 cells (3×10^5 cell) were attached overnight in […] petri dish plates containing 2 ml of RPMI media. Prior to imaging, cells were stained for 30 min with Mitotracker Red CMXRoss at 100 nM final concentration. Upon media replacement, samples were pre-treated with 3× IC50 of ferroptocide, P27, L1, QQ1 for 30 min followed by treatment with 5 μM P30 for an additional 30 min and a PBS wash. PBS or phenol free media was added to each dish and cells were stained with Hoechst 33342 (1 μg/mL).

[3] = In vitro glutathione assay (LC-MS); assay type: physicochemical; conditions: 100 μM compound, 5 mM glutathione, PBS, 37° C.
Procedure: To an eppendorf tube added, 245 μL of 1×PBS, 5 μL of 10 mM DMSO stock of ferroptocide or P23 and 250 μL of reduced GSH (5 mM final concentration). Reactions were vortexed briefly and incubated at 37° C. Adduct formation was monitored at the indicated time points (0, 0.5, 1, 2, 3, 24 hr) by mixing an aliquot of 50 μL from the reaction mixture with 50 μL of MeOH before LC/MS analysis.

With `Cc1c(C)c2c(c(C)c1O)CCC(C)(C(=O)O)O2` (stereo not drawn) [trolox] the “protection against ferroptocide-induced cell death” value (from here on “protection”) (ES-2 cells [1]) was “significantly protected against ferroptocide-induced cell death”, the “protection” value (A549 cells) was “significantly protected against ferroptocide-induced cell death” and the “protection” value (4T1 cells) was “significantly protected against ferroptocide-induced cell death”. The “protection” value (HCT 116 cells) was “significantly protected against ferroptocide-induced cell death”.

For `C[C@@H]1CC[C@@]23C[C@H](O)C(=O)[C@@]2(O)[C@]1(C)[C@H](OC(=O)CF)C[C@@H](C1=CCn2c(=O)n(-c4ccccc4)c(=O)n2C1)[C@@H]3C` [Compound P22], the “anticancer activity (in words)” value (ES-2 cell line) was “greatly diminished anticancer activity” and the IC50 (ES-2 cell line) was 34 ± 5.7 µM.

With `C=CC(=C)[C@@H]1C[C@@H](OC(=O)CCl)[C@]2(C)[C@H](C)CC[C@]3(C[C@H](O)C(=O)[C@]32O)[C@H]1C` [Compound P4] the IC50 (ES-2 cell line) was 6.7 µM and the hemolytic activity (red blood cells) was “no signs of hemolytic activity; also recorded: Lack of hemolytic activity”.

In the case of `CO[C@H]1C[C@@]23CC[C@@H](C)[C@@](C)([C@H](OC(=O)c4ccco4)C[C@@H](C4=CCn5c(=O)n(-c6ccccc6)c(=O)n5C4)[C@@H]2C)[C@]3(O)C1=O` [Compound P26], the “anticancer activity (in words)” value (ES-2 cell line) is reported as “no anticancer activity” and the IC50 (ES-2 cell line) is reported as > 100 µM.

In the case of `C=C[C@]1(C)C[C@@H](OC(=O)CCl)[C@]2(C)[C@H](C)CC[C@]3(CCC(=O)[C@H]32)[C@@H](C)[C@@H]1O` [Compound P27], the “competition of P30 staining” value (ES-2 cells [2]) is reported as “non-competing compounds”.

For `CC(=O)OCC(=O)O[C@@H]1C[C@@H](C2=CCn3c(=O)n(-c4ccccc4)c(=O)n3C2)[C@H](C)[C@@]23CC[C@@H](C)[C@]1(C)[C@]2(O)C(=O)[C@@H](O)C3` [Compound P24], the “anticancer activity (in words)” value (ES-2 cell line) was “no anticancer activity” and the IC50 (ES-2 cell line) was > 100 µM.

With `CO[C@H]1C[C@@]23CC[C@@H](C)[C@@](C)([C@H](OC(C)=O)C[C@@H](C4=CCn5c(=O)n(-c6ccccc6)c(=O)n5C4)[C@@H]2C)[C@]3(O)C1=O` [Compound P21] the “anticancer activity (in words)” value (ES-2 cell line) was “eliminated activity” and the IC50 (ES-2 cell line) was > 100 µM.

In the case of `CC(=O)O[C@H]1C[C@@]23CC[C@@H](C)[C@@](C)([C@H](OC(=O)CCl)C[C@@H](C4=CCn5c(=O)n(-c6ccccc6)c(=O)n5C4)[C@@H]2C)[C@]3(O)C1=O` [Compound P20], the “anticancer activity (in words)” value (ES-2 cell line) is reported as “did not change the activity” and the IC50 (ES-2 cell line) is reported as 1.4 ± 0.5 µM.

For `CC[C@H](C)C(=O)O[C@H]1C[C@@H](C)C=C2C=C[C@H](C)[C@H](CC[C@@H]3C[C@@H](OC(=O)CCl)CC(=O)O3)[C@H]21` [Compound L1], the “competition of P30 staining” value (ES-2 cells [2]) was “non-competing compounds”.

With `C#CCN1C(=O)C2CC=C([C@@H]3C[C@@H](OC(=O)CCl)[C@]4(C)[C@H](C)CC[C@]5(C[C@H](O)C(=O)[C@]54O)[C@H]3C)CC2C1=O` (stereo partly drawn) [Compound P29] the “anticancer activity (in words)” value (ES-2 cell line) was “retained anticancer activity similar to ferroptocide; also recorded: retain biological activity”.

In the case of `CO[C@H]1C[C@@]23CC[C@@H](C)[C@@](C)([C@H](OC(=O)C(Cl)Cl)C[C@@H](C4=CCn5c(=O)n(-c6ccccc6)c(=O)n5C4)[C@@H]2C)[C@]3(O)C1=O` [Compound P25], the “anticancer activity (in words)” value (ES-2 cell line) is reported as “no anticancer activity” and the IC50 (ES-2 cell line) is reported as > 100 µM.

For `C[C@@H]1CC[C@@]23C[C@H](O)C(=O)[C@@]2(O)[C@]1(C)[C@H](OC(=O)CCl)C[C@@H](C1=CCC2C(=O)N(c4ccccc4)C(=O)C2C1)[C@@H]3C` (stereo partly drawn) [Compound P28], the “anticancer activity (in words)” value (ES-2 cell line) was “minimal loss in activity; also recorded: retain biological activity”.

For `CC(=O)N[C@@H](CS)C(=O)O` [NAC-1, N-acteyl cysteine], the “protection” value (A549 cells) was “protection from ferroptocide- and TBHP-induced cell death” and the “protection” value (HCT 116 cells) was “protection from ferroptocide- and TBHP-induced cell death”.

With `C[C@@H]1CC[C@@]23C[C@H](O)C(=O)[C@@]2(O)[C@]1(C)[C@H](OC(=O)CI)C[C@@H](C1=CCn2c(=O)n(-c4ccccc4)c(=O)n2C1)[C@@H]3C` [Compound P23] the “anticancer activity (in words)” value (ES-2 cell line) was “greater potency in cells”, the IC50 (ES-2 cell line) was 0.24 ± 0.002 µM and the “reactivity with excess glutathione (in words)” value [3] was “rapid reaction”.

In the case of `C=CC1CN2CCC1CC2[C@H](OC(=O)CCl)c1ccnc2ccc(OC)cc12` (stereo partly drawn) [QQ1], the “competition of P30 staining” value (ES-2 cells [2]) is reported as “non-competing compounds”.

For `CC1=CC(C)=[N+]2C1=Cc1ccc(CCC(=O)NCCCn3cc(CN4C(=O)C5CC=C([C@@H]6C[C@@H](OC(=O)CCl)[C@]7(C)[C@H](C)CC[C@]8(C[C@H](O)C(=O)[C@]87O)[C@H]6C)CC5C4=O)nn3)n1[B-]2(F)F` (stereo partly drawn) [Compound P30], the “anticancer activity (in words)” value (ES-2 cell line) was “retained anticancer activity similar to ferroptocide; also recorded: retain biological activity”.

For `CC(C)[C@H](NC(=O)c1ccc2ccccc2n1)C(=O)N[C@@H](CC(=O)O)C(=O)COc1c(F)cccc1F` [Q-VD-OPh], the “protection” value (ES-2 cells [1]) was “does not protect against ferroptocide-induced cell death” and the “protection” value (HCT 116 cells) was “does not protect against ferroptocide-induced cell death”.

For `CO[C@H]1C[C@@]23CC[C@@H](C)[C@@](C)([C@H](OC(=O)CCl)C[C@@H](C4=CCn5c(=O)n(-c6ccccc6)c(=O)n5C4)[C@@H]2C)[C@]3(O)C1=O` [Compound P19], the “anticancer activity (in words)” value (ES-2 cell line) was “did not change the activity” and the IC50 (ES-2 cell line) was 1.9 ± 0.1 µM.
